Data on 37 compounds can be found in patent publication US10919896B2, “Preparation and uses of pyrimidinone derivatives” (Cancer Research Technology Limited, priority 2016, dated 2021).

For one assay, the target named is Cdc7/Dbf4 (Homo sapiens, UniProt O00311). Put plainly: Cdc7 Biochemical Assay Method 3: Cdc7/Dbf4 Enzyme TR-FRET Assay measuring pS40MCM2. The note with it: 1 μM ATP, read-out: Biochemical Method 3 (pIC50) (converted). An outline of the steps: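 TR-FRET read-out (terbium anti-rabbit donor, streptavidin-Alexa Fluor488 acceptor, anti-Mcm2 pS40 antibody) of peptide phosphorylation after 120 min at 25° C; reaction held 1 μM ATP, 100 nM biotin-tagged peptide substrate and 2.5 nM enzyme complex.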

For assay [1], the system named is Cdc7 (pS40MCM2 levels in HCT116 cells). Put plainly: Cdc7 Cell Pharmacodynamics Assay Method 2B: pS40MCM2 levels in HCT116 cells, 18 hours. Type of assay: cell-based. The note with it: Homo sapiens, HCT-116, read-out: Biomarker Method 2B (pEC50) (converted). An excerpt:
This protocol describes a method to investigate the inhibition of Cdc7 activity by measuring pS40MCM2 levels in cells, after treatment with compounds.
• HCT116 cells (ATCC, #CCL-247) • McCoys 5A with L-glutamine (Cellgro, #10-050-CV) • 10% FCS (Cellgro, #35-010-CV) • D-PBS without CaCl2 and MgCl2 (Cellgro, #21-031-CV) • Trypsin/EDTA (Cellgro, #25-052-CL) • BSA (Calbiochem, 126593) • Cell Extraction Buffer (Invitrogen FNN0011) • Protease inhibitor cocktail (Sigma P-2714) • PMSF 0.3M stock in DMSO (Sigma P7626) • Antibody-rabbit pMCM2 Ser40 (Abcam, AB133243) • Antibody-goat MCM2 (Bethyl #A300-122A) • Antibody-goat Anti Rabbit IgG HRP (Thermo, 31462) • SuperSignal ELISA Pico Chemiluminescent Substrate (Perbio Science UK Ltd 37069) • 10×PBS (Growcells, MRGF-6236) • Triton X100 (Sigma, P-T8787) • DMSO (Fisher, D128-1) • 2-Propanol (J. T. Baker, 9095-03) Method • Seed 1×10^6 HCT116 cells into each of two 175 cm^2 flask containing 30 mL Cell Growth Media and incubate at 37° C., 5% CO2 for 3 days. • Harvest the cells from one T175 cm^2 flask and count. • Dilute with Cell Growth Media to a cell density of 2×10^5. Dispense 100 μL to each well (20,000 HCT116 cells/well) of TC treated 96-well plate(s). • Allow cells to settle overnight in incubator set at 37° C. and 5% CO2. • Cell treatment: Transfer 0.25 μL/well from the compound plate to the wells of the cell plate(s). This is a 1:400 dilution of compound in the assay. • Once all cells are treated place the cells back to the incubator and incubate for either 6 hours (Method 2A) or 18 hours (Method 2B). • Dilute the capture antibody (total MCM2#A300-122A) 1 in 250 in the required volume of PBS (5 mL per assay plate, plus 5 mL for dead volume) and add 50 μL to each well of a Hybond plate except wells A12 & B12. Seal the plate and incubate at room temperature for a minimum of 2 hours. • Defrost aliquot of Invitrogen Cell Extraction Buffer (FNN0011) on ice and supplement with appropriate volume of both Sigma protease inhibitor cocktail (P-2714) and PMSF (final conc 1 mM from a 1 M stock in DMSO). • After the 6 hour or 18 hour cell treatment time, tap out the media from the assay plates and place them in the −70° C. freezer for at least 5 minutes. • Flick out the remaining liquid in the previously prepared capture Ab plate(s) and add 200 μL 2% BSA per well. Incubate for 1 hour at room temperature. • Remove plates from freezer and add 20 μL of ice cold complete lysis buffer. Incubate cells for 30 minutes at 4° C. • Add 30 μL per well 2% BSA • At the end of the 1 hour incubation, wash the Capture/ELISA plate(s) with Wash Buffer on the BioTek plate washer. • Transfer 40 μL per well of the lysis plate(s) to the same wells in the Capture/ELISA plate. Incubate cells overnight at 4° C. • At the end of the overnight incubation, wash the ELISA plate(s) with Wash Buffer on BioTek plate washer. • Prepare Detection Antibody Buffer and dispense 50 μL to all wells of ELISA plate(s) except wells G1 & H1. Cover plate and incubate at room temperature for 2 hours with gentle shaking. • At the end of the 2 hour incubation, wash the ELISA plate(s) with Wash Buffer on the BioTek plate washer. • Prepare the Conjugated Antibody Buffer and dispense 50 μL to all wells of ELISA plate(s). • Cover the plate and incubate at room temperature for 1 hour with gentle shaking. • At the end of the 1 hour incubation, wash the ELISA plate(s) with Wash Buffer on the BioTek plate washer. • Prepare Substrate Buffer and dispense 50 μL to all wells of ELISA plate(s). • Incubate for a minimum of 10 minutes and read plates on the EnVision 2100 Multilabel Reader (Mirror: Luminescence (404) & Luminescence 700 (212); Measurement Height: 6.5 mm; Measurement Time: 0.2 s). Method 3

Sequence of Cdc7/Dbf4 (O00311 whole entry): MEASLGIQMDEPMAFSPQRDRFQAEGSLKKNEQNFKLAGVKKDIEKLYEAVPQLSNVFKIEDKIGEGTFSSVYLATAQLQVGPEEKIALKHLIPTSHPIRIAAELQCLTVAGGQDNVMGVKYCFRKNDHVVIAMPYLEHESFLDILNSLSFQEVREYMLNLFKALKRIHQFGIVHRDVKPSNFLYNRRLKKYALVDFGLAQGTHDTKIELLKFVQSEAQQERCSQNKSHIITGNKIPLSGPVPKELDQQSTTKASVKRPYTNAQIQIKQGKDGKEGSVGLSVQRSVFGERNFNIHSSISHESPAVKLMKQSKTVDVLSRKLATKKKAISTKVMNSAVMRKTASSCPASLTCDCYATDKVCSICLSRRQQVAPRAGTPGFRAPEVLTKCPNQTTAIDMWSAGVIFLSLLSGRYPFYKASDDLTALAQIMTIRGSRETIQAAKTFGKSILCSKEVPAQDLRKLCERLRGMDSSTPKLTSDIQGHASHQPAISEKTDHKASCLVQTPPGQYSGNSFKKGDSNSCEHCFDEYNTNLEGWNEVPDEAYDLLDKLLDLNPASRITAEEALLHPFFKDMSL
Sequence of Cdc7/Dbf4 (Q9UBU7 whole entry partner): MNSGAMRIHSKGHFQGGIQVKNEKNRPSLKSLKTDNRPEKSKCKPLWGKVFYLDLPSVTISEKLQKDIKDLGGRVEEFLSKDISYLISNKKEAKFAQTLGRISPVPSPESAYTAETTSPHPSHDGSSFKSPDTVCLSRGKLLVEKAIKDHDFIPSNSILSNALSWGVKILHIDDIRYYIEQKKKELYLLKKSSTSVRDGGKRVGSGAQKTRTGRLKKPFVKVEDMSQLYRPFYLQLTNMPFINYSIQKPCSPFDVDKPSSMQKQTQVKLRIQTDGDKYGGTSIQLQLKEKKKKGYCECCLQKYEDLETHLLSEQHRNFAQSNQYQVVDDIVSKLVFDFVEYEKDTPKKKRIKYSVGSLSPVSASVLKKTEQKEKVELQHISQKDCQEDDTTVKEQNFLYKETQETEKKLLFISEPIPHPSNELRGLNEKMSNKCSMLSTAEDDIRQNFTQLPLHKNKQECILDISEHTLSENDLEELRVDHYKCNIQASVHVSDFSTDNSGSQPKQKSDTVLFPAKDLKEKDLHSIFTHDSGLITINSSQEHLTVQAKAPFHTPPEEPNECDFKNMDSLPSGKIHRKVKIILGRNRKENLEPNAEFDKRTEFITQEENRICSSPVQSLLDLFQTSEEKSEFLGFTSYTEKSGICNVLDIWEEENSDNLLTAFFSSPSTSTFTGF

Regarding `O=c1[nH]c(-c2ccnc(F)c2)nc(N2CCCC3(CCNC3)C2)c1Cl` (centres unmarked) [Compound 258], on Cdc7/Dbf4, the IC50 was 0.000832 µM. For the same compound, in assay [1], the EC50 was 0.562 µM.

For `CC[C@@H]1COCCN1c1nc(-c2ccnc(F)c2)[nH]c(=O)c1Cl` [Compound 335], at Cdc7/Dbf4, the IC50 is 0.0011 µM. In addition, in assay [1], the EC50 was 0.457 µM.

On to `O=c1[nH]c(-c2ccncc2)nc(N2CC(F)(F)OC(F)(F)C2)c1Cl` [Compound 413, 5-chloro-2-(4-pyridyl)-4-(2,2,6,6-tetrafluoromorpholin-4-yl)-1H-pyrimidin-6-one], for which the IC50 at Cdc7/Dbf4 is 0.00138 µM. The EC50 in assay [1] was 0.309 µM.

`O=C1COCCN(c2nc(-c3ccnc(F)c3)[nH]c(=O)c2Cl)C1` [Compound 208]: the IC50 on Cdc7/Dbf4 was 0.00049 µM. In addition, the EC50 in assay [1] is 0.0646 µM.

As for `C[C@@H]1CN(c2nc(-c3ccnc(F)c3)[nH]c(=O)c2Cl)CCO1` [Compound 337], the IC50 on Cdc7/Dbf4 is 0.00112 µM. The EC50 in assay [1] was 0.372 µM.

`O=c1[nH]c(-c2ccnc(F)c2)nc(N2CCCOCC2)c1Cl` [Compound 338]: the IC50 at Cdc7/Dbf4 was 0.000708 µM. Further, the EC50 in assay [1] is 0.178 µM.

In the case of `C[C@]1(N)CCN(c2nc(-c3ccnc(F)c3)[nH]c(=O)c2Cl)C1` [Compound 273], the IC50 at Cdc7/Dbf4 was 0.000646 µM. Moreover, the EC50 in assay [1] was 0.427 µM.

For the compound `O=c1[nH]c(-c2ccnc(F)c2)nc(N2CCN(CC(F)F)CC2)c1Cl` [Compound 350], the IC50 at Cdc7/Dbf4 was 0.00219 µM. For the same compound, the EC50 in assay [1] is 0.155 µM.

`CN1CCCN(c2nc(-c3ccnc(F)c3)[nH]c(=O)c2Cl)CC1` [Compound 298]: the IC50 at Cdc7/Dbf4 is 0.00407 µM. In addition, the EC50 in assay [1] is 0.331 µM.

Take `CC1(C)CN(c2nc(-c3ccnc(F)c3)[nH]c(=O)c2Cl)CCO1` [Compound 300]: the IC50 at Cdc7/Dbf4 is 0.00302 µM. In assay [1], the EC50 was 0.115 µM.

As for `O=c1[nH]c(-c2ccnc(F)c2)nc(N2CCC3(COC3)C2)c1Cl` [Compound 284], the IC50 on Cdc7/Dbf4 is 0.00209 µM. Besides, the EC50 in assay [1] was 0.389 µM.

For the compound `CO[C@@H]1CCCN(c2nc(-c3ccnc(F)c3)[nH]c(=O)c2Cl)C1` [Compound 282], on Cdc7/Dbf4, the IC50 was 0.00263 µM. Also, the EC50 in assay [1] is 0.234 µM.

As for `CC1(C)CN(c2nc(-c3ccnc(F)c3)[nH]c(=O)c2Cl)CCCO1` [Compound 301], the IC50 on Cdc7/Dbf4 is 0.0105 µM. Also, the EC50 in assay [1] was 1.91 µM.

`CC1OCCN(c2nc(-c3ccnc(F)c3)[nH]c(=O)c2Cl)C1C` (centres unmarked) [Compound 359]: the IC50 at Cdc7/Dbf4 is 0.002 µM. Also, the EC50 in assay [1] is 0.0275 µM.

In the case of `C[C@@H]1CN(c2nc(-c3ccnc(F)c3)[nH]c(=O)c2Cl)C[C@H](C)O1` [Compound 201], the IC50 on Cdc7/Dbf4 is 0.00417 µM. The EC50 in assay [1] is 0.813 µM.

Take `CN(C)[C@H]1CCN(c2nc(-c3ccnc(F)c3)[nH]c(=O)c2Cl)C1` [Compound 272]: at Cdc7/Dbf4, the IC50 is 0.0055 µM. In addition, the EC50 in assay [1] was 0.501 µM.

Take `C[C@@H]1CNCCCN1c1nc(-c2ccnc(F)c2)[nH]c(=O)c1Cl` [Compound 352]: on Cdc7/Dbf4, the IC50 is 0.00363 µM. In assay [1], the EC50 is 0.437 µM.

In the case of `CC1CN(c2nc(-c3ccnc(F)c3)[nH]c(=O)c2Cl)C(C)CO1` (centres unmarked) [Compound 340], the IC50 on Cdc7/Dbf4 was 0.00251 µM. Besides, the EC50 in assay [1] was 0.174 µM.

Turning to `O=c1[nH]c(-c2ccnc(F)c2)nc(N2CCCC3NCCC32)c1Cl` (centres unmarked) [Compound 275], the IC50 at Cdc7/Dbf4 was 0.000794 µM. For the same compound, in assay [1], the EC50 was 2.09 µM.

Turning to `N#CC[C@H]1CN(c2nc(-c3ccnc(F)c3)[nH]c(=O)c2Cl)CCN1` [Compound 306], the IC50 at Cdc7/Dbf4 was 0.00129 µM. Moreover, in assay [1], the EC50 was 0.174 µM.

Take `N#C[C@@H]1CNCCN1c1nc(-c2ccnc(F)c2)[nH]c(=O)c1Cl` [Compound 345]: at Cdc7/Dbf4, the IC50 is 0.00129 µM. Further, the EC50 in assay [1] was 1.74 µM.

As to `O=c1[nH]c(-c2ccnc(F)c2)nc(N2CCN3CC(F)(F)C[C@H]3C2)c1Cl` [Compound 347], the IC50 on Cdc7/Dbf4 was 0.00363 µM. Also, in assay [1], the EC50 was 0.316 µM.

Consider `CC1COCCCN1c1nc(-c2ccnc(F)c2)[nH]c(=O)c1Cl` (centres unmarked) [Compound 355], for which the IC50 at Cdc7/Dbf4 is 0.00269 µM. Moreover, the EC50 in assay [1] was 0.288 µM.

On to `C[C@@H]1CCCCN1c1nc(-c2ccnc(F)c2)[nH]c(=O)c1Cl` [Compound 281], for which, on Cdc7/Dbf4, the IC50 was 0.00105 µM. In assay [1], the EC50 was 0.457 µM.

As to `O=c1[nH]c(-c2ccnc(F)c2)nc(N2CC[C@@H]3CNC[C@@H]32)c1Cl` [Compound 261], the IC50 at Cdc7/Dbf4 was 0.000813 µM. In addition, the EC50 in assay [1] was 0.537 µM.

As for `CC1(F)CNCCN(c2nc(-c3ccnc(F)c3)[nH]c(=O)c2Cl)C1` (centres unmarked) [Compound 304], the IC50 at Cdc7/Dbf4 was 0.00138 µM. The EC50 in assay [1] was 0.214 µM.

Take `O=c1[nH]c(-c2ccnc(F)c2)nc(N2CCNC(C(F)(F)F)CC2)c1Cl` (centres unmarked) [Compound 296]: the IC50 on Cdc7/Dbf4 was 0.00759 µM. Also, the EC50 in assay [1] was 1.02 µM.

As for `O=c1[nH]c(-c2ccnc(F)c2)nc(N2CCCCC2)c1Cl` [Compound 277], the IC50 on Cdc7/Dbf4 was 0.00107 µM. In assay [1], the EC50 is 0.282 µM.

Turning to `O=c1[nH]c(-c2ccnc(F)c2)nc(N2CCCC23CCCNC3)c1Cl` (centres unmarked) [Compound 260], on Cdc7/Dbf4, the IC50 is 0.00141 µM. Besides, in assay [1], the EC50 is 0.0724 µM.

As for `CN[C@H]1CCN(c2nc(-c3ccnc(F)c3)[nH]c(=O)c2Cl)C1` [Compound 271], the IC50 on Cdc7/Dbf4 was 0.00148 µM. Besides, in assay [1], the EC50 was 0.295 µM.

Turning to `C[C@@H]1CN(c2nc(-c3ccnc(F)c3)[nH]c(=O)c2Cl)[C@H](C)CO1` [Compound 357], the IC50 at Cdc7/Dbf4 is 0.00209 µM. Besides, the EC50 in assay [1] was 0.2 µM.

With `CC1CCN(c2nc(-c3ccnc(F)c3)[nH]c(=O)c2Cl)CCN1` (centres unmarked) [Compound 303], the IC50 at Cdc7/Dbf4 was 0.00209 µM. In addition, the EC50 in assay [1] was 0.126 µM.

On to `O=c1[nH]c(-c2ccnc(F)c2)nc(N2CCN3CCC2CC3)c1Cl` [Compound 293], for which the IC50 on Cdc7/Dbf4 is 0.000363 µM. In addition, the EC50 in assay [1] was 0.0295 µM.

Regarding `CC1(C)CN(c2nc(-c3ccnc(F)c3)[nH]c(=O)c2Cl)CCN1` [Compound 297], the IC50 on Cdc7/Dbf4 is 0.00324 µM. In assay [1], the EC50 is 0.912 µM.

As to `O=c1[nH]c(-c2ccnc(F)c2)nc(N2CCN3CCC[C@H]3C2)c1Cl` [Compound 348], on Cdc7/Dbf4, the IC50 is 0.00195 µM. Moreover, the EC50 in assay [1] is 0.257 µM.

Turning to `CC1CCNCCN1c1nc(-c2ccnc(F)c2)[nH]c(=O)c1Cl` (centres unmarked) [Compound 351], the IC50 at Cdc7/Dbf4 was 0.00135 µM. In addition, in assay [1], the EC50 was 0.138 µM.

`O=c1[nH]c(-c2ccnc(F)c2)nc(N2CCC(N3CCOCC3)CC2)c1Cl` [Compound 244]: the IC50 on Cdc7/Dbf4 is 0.00437 µM. In assay [1], the EC50 is 0.398 µM.
